Reference: PubChem BioAssay AID2740 (NMMLSC, 2010)
Calls of active or inactive are those of the source.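 The calls were made as follows: active = compounds whose fitted half-maximal concentration for changing the GFP signal is at or below a set limit; inactive = the rest.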

test system: not listed separately; test: TOR pathway RPL19A-GFP modulators, concentration series – cell-based, S. cerevisiae, flow cytometry, MLPCN hits, dose response (AID 2740);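 as to GFP fluorescence, lower = active: background is signal of the same compound in parental non-GFP s288c yeast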; settings: S. cerevisiae RPL19A-GFP strain, flow cytometry fluorescence, 3 h; at 33 µM (top of the series)

SMILES | GFP fluorescence, lower = active (kMESF (background-subtracted))
O=C(OCC(=O)N1CCN(C(=O)c2ccco2)CC1)c1cc(-c2ccc(F)cc2)nc2ccccc12 | 32.3 (inactive)

test system: S. cerevisiae RPL19A-GFP strain, flow cytometry fluorescence, 3 h; test: as above; settings: not given

SMILES | EC50
O=C(OCC(=O)N1CCN(C(=O)c2ccco2)CC1)c1cc(-c2ccc(F)cc2)nc2ccccc12 | 5.05 µM
CC(=O)Nc1ncnc2c1c(-c1ccc(Cl)cc1)nn2C(C)(C)C | 6.07 µM
CC(C)(C)C(=O)NC(=S)NNC(=O)c1sc2ccccc2c1Cl | 12.3 µM
C#CCOCCOCCOCCNc1nc(N2CCN(C(=O)CCCCCCCCCCNC(=O)[C@H](CCCCN)n3cc(CCO)nn3)CC2)nc(N2CCN(C(=O)CCCCCCCCCCNC(=O)[C@H](CCCN=C(N)N)n3cc(C[C@@H](C)CC)nn3)CC2)n1 | 10 µM
CCOC(=O)c1cc(-c2ccc(/C=C3/C(=O)NC(=O)C(C#N)=C3C)o2)ccc1Cl | 3.35 µM
COc1cccc2cc(-c3nc4ccccc4o3)c(=O)oc12 | 1.11 µM
COc1cc(/C=C/[N+](=O)[O-])ccc1O | 32.1 µM
O=C1C=CC(=O)N1c1ccc(O)cc1 | 12.6 µM
O=C1C2C3C=CC(CO)(O3)C2C(=O)N1c1ccc(-c2ccccc2)cc1 (stereo not given) | 10.2 µM
CC(Oc1ccc(Br)cc1)C(=O)Nc1nc(-c2ccccn2)cs1 (stereo not given) | 20.5 µM
N/C(Cc1ccc(Cl)cc1Cl)=N\OC(=O)c1cccs1 | 12.9 µM
COc1cccc2sc(Nc3nc(-c4ccccn4)cs3)nc12 | 3.82 µM
O=[N+]([O-])c1ccc(S(=O)(=O)c2cccc(C(F)(F)F)c2)nc1 | 11.8 µM
CCc1ccc2c(c1)/C(=C/C(=O)c1cccs1)C(=O)N2 | 4.42 µM
